Results from US9950048B2, “Immunogenic epitopes for immunotherapy” (immatics biotechnologies GmbH, priority 2007, dated 2018).
Values belong to the substance of their own block, whether it stands above or below them. Ends that are not written are not given here.

Key:
[1] = Particle size/shape measurement and analytical HPLC of reconstituted IMA910 suspension; format: physicochemical; conditions: analytical HPLC of suspension
Method: Particle size distribution and particle shape measurement of the particles obtained after reconstitution have been performed by capturing direct images of each individual particle in the range of 0.25 to 100 μm followed by image analysis.
Furthermore, analytical HPLC was performed for a closer characterization of the obtained suspension.
IMA910 is dissolved in 700 μL sodium hydrogen carbonate (4.2%).

[2] = tested on: CD8+ T cells of healthy HLA-A*02+ donors; test: In vitro priming of CD8+ T cells with pMHC/anti-CD28 coated beads (high density), tetramer analysis; format: cell-based, human; conditions: for Immunogenicity detected: at least one well with ≥1% specific tetramer+ among CD8+ T-cells and ≥10× median of negative controls; for Positive donors/donors tested / Positive donors/donors tested (%) / Positive wells/wells tested / Positive wells/wells tested (%): high density beads
Method: To perform in vitro stimulations by artificial antigen presenting cells (aAPC) loaded with peptide-MHC complex (pMHC) and anti-CD28 antibody, first PBMCs (peripheral blood mononuclear cells) were isolated from fresh HLA-A*02+ buffy coats by using standard density gradient separation medium (PAA, Cölbe, Germany). Buffy coats were either obtained from the Blood Bank Tübingen or from the Katharinenhospital Stuttgart. Isolated PBMCs were incubated overnight in T-cell medium (TCM) for human in vitro priming consisting of RPMI-Glutamax (Invitrogen, Karlsruhe, Germany) supplemented with 10% heat inactivated human AB serum (PAA, Cölbe, Germany), 100 U/ml Penicillin/100 μg/ml Streptomycin (Cambrex, Verviers, Belgium), 1 mM sodium pyruvate (CC Pro, Neustadt, Germany) and 20 μg/ml Gentamycin (Cambrex). CD8+ lymphocytes were isolated using the CD8+ MACS positive selection kit (Miltenyi, Bergisch Gladbach, Germany) according to the manufacturer's instructions. Obtained CD8+ T-cells were incubated until use in TCM supplemented with 2.5 ng/ml IL-7 (PromoCell, Heidelberg, Germany) and 10 U/ml IL-2 (Chiron, Munich, Gemany). Generation of pMHC/anti-CD28 coated beads, T-cell stimulations and readout was performed as described before (Walter, S, et al., 2003, J. Immunol., 171, 4974-4978) with minor modifications. Briefly, biotinylated recombinant HLA-A*0201 molecules lacking the transmembrane domain and being biotinylated at the carboxy terminus of the heavy chain were produced following a method described by (Altman, J D, et al., 1996, Science, 274, 94-96). The purified costimulatory mouse IgG2a anti human CD28 Ab 9.3 (Jung, G, Ledbetter, J A, and Muller-Eberhard, H J; 1987, Induction of cytotoxicity in resting human T lymphocytes bound to tumor cells by antibody heteroconjugates, Proc Natl Acad Sci USA, 84, 4611-4615) was chemically biotinylated using Sulfo-N-hydroxysuccinimidobiotin as recommended by the manufacturer (Perbio, Bonn, Germany).
800,000 beads/200 μl were coated in 96-well plates in the presence of 600 ng biotin anti-CD28 plus 200 ng relevant biotin-pMHC (high density beads) or 2 ng relevant plus 200 ng irrelevant (pMHC library) MHC (low density beads). Stimulations were initiated in 96-well plates by conincubating 1×10^6 CD8+ T cells with 2×10^5 washed coated beads in 200 μl TCM supplemented with 5 ng/ml IL-12 (PromoCell) for 3-4 days at 37° C. Half of the medium was then exchanged by fresh TCM supplemented with 80 U/ml IL-2 and incubation was continued for 3-4 days at 37° C. This stimulation cycle was performed for a total of three times. Finally, tetrameric analyses were performed with fluorescent MHC tetramers (produced as described by (Altman, J D, et al., 1996, Science, 274, 94-96)) plus antibody CD8-FITC clone SK1 (BD, Heidelberg, Germany) on a four-color FACSCalibur (BD). Peptide specific cells were calculated as percentage of total CD8+ T cells. Evaluation of tetrameric analysis was performed using the software FCS Express (De Novo Software). In vitro priming of specific tetramer+CD8+ lymphocytes was detected by appropriate gating and by comparison to negative control stimulations.
Peptides of the present invention were tested together with peptides of known in vivo immunogenicity for comparison. The CEA-005 peptide that was optimised for in vitro T-cell induction (Fong, L, et al., 2001, J. Immunol., 166, 4254-4259) served as control.
Results of in vitro immunogenicity experiments conducted by immatics are summarised here. Results shown have been obtained by stimulation of CD8+ cells with high density beads. As different human serum lots may highly affect the immunogenicity results, only assays in which one and the same serum lot was used, were evaluated together.

[3] = tested on: monocyte-depleted PBMCs of one healthy donor; test: In vitro priming with peptide-pulsed autologous DCs, intracellular IFNγ staining (ICS) read-out; format: cell-based, human
Method: FIGS. 7a and 7b depict the in vitro immunogenicity of TGFBI-004 as detected by ICS after five stimulation cycles.
Cells were primed with TGFBI-004-loaded autologous DCs and restimulated repeatedly with autologous PBMCs plus TGFBI-004. For the read-out cells were incubated with relevant TGFBI-004 (Well 1, 2, 3 and 4) and irrelevant (Neg. Control) peptide, respectively. Additionally to the intracellular IFNγ staining, cells were also stained with CD4-FITC and OCD8-PerCP antibodies. The analysis was performed on a four-color FACSCalibur cytometer (BD Biosciences, Germany).
(§1) Priming and expansion of specific human CD4+ and CD8+ cells were assayed in vitro by priming of monocyte-depleted PBMCs with autologous DCs and restimulation with autologous PBMCs. […] As a read-out system, IFNγ production upon short term restimulation was assessed by ELISPOT and flow cytometry. T cells were analysed after […] stimulations by ELISPOT and intracellular IFNγ staining plus CD4-FITC and CD8-PerCP to determine the percentage of IFNγ-producing cells in specific T-cell subpopulations. In this experiment, cells stimulated with TGFBI-004 peptide from different wells were pooled, incubated with irrelevant peptide for the read-out and performed as negative controls. […]
(§2) To generate CD4+ T cells, 3 Million PBMCs/PBLs were stimulated with 2×10^5 autologuous DCs. […] After being washed with DC medium, cell number was determined. […]

[4] = tested on: monocyte-depleted PBMCs of one healthy donor; test: In vitro priming with peptide-pulsed autologous DCs, IFNγ ELISPOT read-out; format: cell-based, human
Method: FIG. 6 depicts the in vitro immunogenicity of TGFBI-004 as detected by IFNγ ELISPOT after five stimulation cycles.
Cells were primed and restimulated repeatedly with TGFBI-004 and then incubated with relevant TGFBI-004 (Well 1, 2, 3 and 4) and irrelevant (Neg. control) peptide, respectively. The analysis after IFNγ ELISPOT was performed on an ELISPOT Reader (CTL, Cleveland, USA). PHA-Ionomycin served as positive control. Numbers indicate the count of positive spots.
as §1, §2

amount of peptide found in the particles [1]: low amounts
Substance: KIFDEILVNA [TOP-001]
Immunogenicity detected [2]: yes | Positive donors/donors tested [2]: 2/5 | Positive donors/donors tested (%) [2]: (40%) | Positive wells/wells tested [2]: 7/72 | Positive wells/wells tested (%) [2]: (10%)

Substance: CCN-001: 9 amino acid peptide in vaccine IMA910, supplied as chloride salt (LLGATCMFV; also: chloride salt) [reference compound]
amount of peptide found in the particles [1]: low amounts | Immunogenicity detected [2]: yes | Positive donors/donors tested [2]: 5/5 | Positive donors/donors tested (%) [2]: (100%) | Positive wells/wells tested [2]: 42/54 | Positive wells/wells tested (%) [2]: (78%)

Substance: TPPIDAHTRNLLRNH (listed as Homo sapiens) [TGFBI-004]
T-cell lines with specific IFNγ producing CD4+ and/or CD8+ cells via ICS [3]: 3 out of 4 | induction of CD4+ and CD8+ T cell responses ([4]; one donor tested, autologous system): able to elicit CD4+ and CD8+ T cell responses | T-cell lines with T-cell responses detected via ELISPOT ([4]; one healthy donor, IFNγ ELISPOT): 2 out of 4

Substance: KLTDIQIEL (listed as Homo sapiens) [JAK-001]
Immunogenicity detected [2]: yes

Substance: ALTTLMHQL (listed as Homo sapiens) [PTP-001]
Immunogenicity detected [2]: yes

Substance: ALSNLEVTL [Peptide C20-001]
Immunogenicity detected [2]: yes | Positive donors/donors tested [2]: 1/5 | Positive donors/donors tested (%) [2]: (20%) | Positive wells/wells tested [2]: 1/60 | Positive wells/wells tested (%) [2]: (2%)

Substance: KLMDLDVEQL [PCN-001]
Immunogenicity detected [2]: yes | Positive donors/donors tested [2]: 3/4 | Positive donors/donors tested (%) [2]: (75%) | Positive wells/wells tested [2]: 4/42 | Positive wells/wells tested (%) [2]: (10%)

Substance: SLWAGVVVL (listed as Homo sapiens) [CHI-001]
Immunogenicity detected [2]: yes
